Measured values reported in US6555356B2, “Methods for microbial regulation” (Unisearch Limited, priority 1995, dated 2003).
≈ marks a conversion by molar mass, not a printed value. Entries after “also recorded” stand apart in the source; their conditions may differ.

What was measured:
Type in all cases: cell-based
[1] = tested on: Vibrio fisheri; assay: Growth of Vibrio fisheri
Description: (§1) The effect on growth of Serratia liquefaciens by furanone compounds was also measured in liquid LB medium by comparing growth of cultures without the addition of compounds versus growth of cultures with added furanone compounds (100 μg/ml of compounds 1-13 (FIG. 3) in separate cultures). Growth was measured as optical density at 450 nm and followed over a 48 hr period.
(§2) Initial assays for both strains of Vibrio were streaked onto LB agar plates (with 2% NaCl) with and without furanone compounds 1-4 at 5-100 μg/ml. Bioluminescence of the plates was visually assessed after 24 hours of incubation at room temperature. In subsequent assays, both strains were grown in liquid culture in the presence of furanones. Bioluminescence was assayed via a luminometer. The effects of furanones on growth of both strains were assayed as above.

[2] = tested on: Chromobacterium violencia; assay: Growth of Chromobacterium violencia; settings: 100 μg/ml
Description: as §1
A mutant of Chromobacterium violencia negative for the HSL auto inducer was used in the assay. The strain was pour plated in LB medium at high density and wells were punched after the media had set. Sterile, filtered supernatants from various HSL producing strains were added to the wells. Plates were incubated at 30° C. and observed for the formation of purple zones (due to […]) around the wells. The effects of furanone compounds 1 and 2 (FIG. 3) were assessed by running this assay on plates of LB medium containing furanone compounds at a concentration of 100 μg/ml. The effects of the compounds on growth of Chromobacterium were assessed as above.

[3] = tested on: strain V55; assay: Marine isolate swarming, strain V55
Description: (§3) Serratia liquefaciens was grown in liquid LB medium at room temperature to an optical density of 0.3 at 450 nm and stable inoculated onto LB agar (0.7% agar) plates. Plates were incubated at 30° C. and observed regularly for swarming behaviour. The effect on swarming of furanone compounds was tested by adding (after sterilisation and cooling of the agar) compounds 1-13 (FIG. 3). in the concentration range of 5-100 μg/ml, to the plates.
(§4) Methods followed those described for Serratia liquefaciens (above). Inhibition of growth of these bacteria by furanones was assessed as above.

[4] = tested on: strain V55; assay: Marine isolate growth in liquid media, strain V55
Description: as §1, §4

[5] = tested on: strain V54; assay: Marine isolate growth in liquid media, strain V54
Description: as §1, §4

[6] = tested on: Proteus mirabilis; assay: Proteus mirabilis swimming; settings: concentrations inhibitory to swarming, LB10 with 0.3% agar
[7] = tested on: strain R130; assay: Marine isolate growth in liquid media, strain R130
Description: as §1, §4

[8] = tested on: strain R86; assay: Marine isolate swimming, strain R86
[9] = tested on: Serratia liquefaciens; assay: Serratia liquefaciens swarming assay; settings: 5-100 μg/ml in LB agar (0.7%) plates
Description: as §3

[10] = tested on: Pseudomonas aeruginosa; assay: Growth of Pseudomonas aeruginosa on plates; settings: 100 μg/ml
Description: (§5) Inoculants from precultures were streaked onto Peptone-Tryptic Soy Broth agar containing 0.3% elastin. Plates were incubated at 37° C. and observed for hydrolysis of the elastin. The effect of furanone compounds was assess by adding compounds 1-4 (100 μg/ml) to the plates and comparing zones of hydrolysis in plates with and without the compounds.

[11] = tested on: strain R12; assay: Marine isolate swarming, strain R12
Description: as §3, §4

[12] = tested on: strain V21; assay: Marine isolate swarming, strain V21
Description: as §3, §4

[13] = tested on: strain V55; assay: Marine isolate swimming, strain V55
[14] = tested on: Serratia liquefaciens; assay: Growth of Serratia liquefaciens in liquid LB medium; settings: 100 μg/ml
Description: as §1

[15] = tested on: Serratia liquefaciens; assay: Serratia liquefaciens exoprotease assay (skim milk agar clearing zones); settings: 100 μg/ml; for exoprotease activity of the wild type: Serratia liquefaciens wild type; for Effect on HSL phenotype: exoenzymes (exoprotease production): Serratia liquefaciens
Description: For assays of production of exoproteases by Serratia liquifaciens the bacteria were cultured as above and inoculated in liquid LB medium. The effects of furanone compounds were tested by adding compounds 3 and 4 (FIG. 3) at 100 μg/ml. Aliquots were withdrawn from the cultures, centrifuged and sterile filtered. Sixty microliters of supernatant were added to wells in skim milk agar plates (1.5% skim milk in M9 medium). Plates were incubated at room temperature and observed for clearing zones around the wells.

[16] = tested on: Pseudomonas aeruginosa; assay: Pseudomonas aeruginosa (elastase) assay; settings: 100 μg/ml in elastin agar
Description: as §5

[17] = tested on: Erwinia carotovora; assay: Erwinia carotovora (exoenzyme) assay on potato slices
Description: Inoculants from precultured E. carotovora were added to slices of potatoes. Degradation (softening and browning) of the potato was compared on slices with and without furanone compounds (3 and 4).

[18] = tested on: strain R12; assay: Marine isolate swimming, strain R12
[19] = tested on: strain V54; assay: Marine isolate swarming, strain V54
Description: as §3, §4

[20] = tested on: strain V21; assay: Marine isolate swimming, strain V21
[21] = tested on: strain R86; assay: Marine isolate swarming, strain R86
Description: as §3, §4

[22] = tested on: strain R130; assay: Marine isolate swimming, strain R130
[23] = tested on: Erwinia carotovora; assay: Growth of Erwinia carotovora
[24] = tested on: Vibrio harveyi; assay: Growth of Vibrio harveyi
Description: as §1, §2

[25] = tested on: strain V54; assay: Marine isolate swimming, strain V54
[26] = tested on: Proteus mirabilis; assay: Proteus mirabilis growth; settings: concentrations inhibitory to swarming, 37 C
Description: as §4

[27] = tested on: strain V21; assay: Marine isolate growth in liquid media, strain V21
Description: as §1, §4

[28] = tested on: strain R86; assay: Marine isolate growth in liquid media, strain R86
Description: as §1, §4

[29] = tested on: Proteus mirabilis; assay: Proteus mirabilis swarming assay; settings: LB10 with 1.5% agar
[30] = tested on: strain R12; assay: Marine isolate growth in liquid media, strain R12
Description: as §1, §4

[31] = tested on: strain R130; assay: Marine isolate swarming, strain R130
Description: as §3, §4

[32] = tested on: Candida albicans; assay: Fungal growth inhibition zone assay, Candida albicans
Description: (§6) In addition to the tests described above, the effects of selected compounds of the general formula 2 on growth of bacteria, one yeast (Candida albicans) and one fungus (Helminthosporium sp.) were assessed. Bacteria were grown in liquid media in the presence of different concentrations of furanones and growth measured via changes in optical density (OD). Fungal assays were done by inoculating agar plates with spores. These plates contained different concentrations of furanone compounds in wells within the plates. Zones of inhibition around these wells were measured after 48 hours.

[33] = tested on: Vibrio harveyi; assay: Vibrio harveyi bioluminescence assay; settings: 100 μg/ml, visual inspection of agar plates
Description: as §2

[34] = tested on: Helminthosporium sp.; assay: Fungal growth inhibition zone assay, Helminthosporium sp.
Description: as §6

[35] = tested on: Vibrio fisheri; assay: Vibrio fisheri bioluminescence assay; settings: 100 μg/ml, visual inspection of agar plates
Description: as §2

SMILES	Effect on bacterial growth [1]	Minimum inhibitory concentration, Swarming [3]	Minimum inhibitory concentration, Growth [4]	Minimum inhibitory concentration, Growth [5]	Minimum inhibitory concentration, Growth [7]	Minimum inhibitory concentration, Swimming [8]	Effect on HSL phenotype: swarming [9]	Effect on bacterial growth [10]	Minimum inhibitory concentration, Swarming [11]	Minimum inhibitory concentration, Swarming [12]	Minimum inhibitory concentration, Swimming [13]	Effect on bacterial growth [14]	exoprotease activity of the wild type [15]	Effect on HSL phenotype: exoenzymes (exoprotease production) [15]	Effect on HSL phenotype: elastase [16]	Effect on HSL phenotype: exoenzymes [17]	Minimum inhibitory concentration, Swimming [18]	Minimum inhibitory concentration, Swarming [19]	Minimum inhibitory concentration, Swimming [20]	Minimum inhibitory concentration, Swarming [21]	further results
CCCC(O)C1=C(Br)C(=CBr)OC1=O (stereo not shown) [Compound 4]	no effect	5 mg/L (≈ 15.3 µM)	25 mg/L (≈ 76.7 µM)	25 mg/L (≈ 76.7 µM)	25 mg/L (≈ 76.7 µM)	25 mg/L (≈ 76.7 µM)	inhibit	no detectable effect	5 mg/L (≈ 15.3 µM)	5 mg/L (≈ 15.3 µM)	5 mg/L (≈ 15.3 µM)	no effect	3 and 4 decreases	inhibit; also recorded: decrease/	inhibited; also recorded: delay/	decreases; also recorded: inhibit	25 mg/L (≈ 76.7 µM)	5 mg/L (≈ 15.3 µM)	5 mg/L (≈ 15.3 µM)	5 mg/L (≈ 15.3 µM)	Effect on bacterial growth [2]: inhibit; Effect on swimming [6]: did not affect; Minimum inhibitory concentration, Swimming [22]: 25 mg/L (≈ 76.7 µM); Effect on bacterial growth [23]: without inhibiting; also recorded: no effect; Effect on bacterial growth [24]: no effect; Minimum inhibitory concentration, Swimming [25]: 5 mg/L (≈ 15.3 µM); Effect on growth [26]: did not affect; Minimum inhibitory concentration, Growth [27]: 5 mg/L (≈ 15.3 µM); Minimum inhibitory concentration, Growth [28]: 25 mg/L (≈ 76.7 µM); Effect on swarming [29]: inhibited; Minimum inhibitory concentration, Growth [30]: 25 mg/L (≈ 76.7 µM); Minimum inhibitory concentration, Swarming [31]: 5 mg/L (≈ 15.3 µM)
CCCC(OC(C)=O)C1=C(Br)C(=CBr)OC1=O (stereo not shown) [Compound 3]	no effect	5 mg/L (≈ 13.6 µM)	5 mg/L (≈ 13.6 µM)	25 mg/L (≈ 67.9 µM)	25 mg/L (≈ 67.9 µM)	>50 mg/L	inhibit	no effect	5 mg/L (≈ 13.6 µM)	5 mg/L (≈ 13.6 µM)	5 mg/L (≈ 13.6 µM)	no effect	3 and 4 decreases	inhibit; also recorded: decrease/	inhibited; also recorded: delay/	no effect	50 mg/L (≈ 136 µM)	5 mg/L (≈ 13.6 µM)	25 mg/L (≈ 67.9 µM)	5 mg/L (≈ 13.6 µM)	width of inhibition zone ([32]; amount added 0.1 μg): 0 mm; width of inhibition zone ([32]; amount added 1 μg): 0 mm; width of inhibition zone ([32]; amount added 10 μg): 1-2 mm; width of inhibition zone ([32]; amount added 100 μg): 2-3 mm; Effect on HSL phenotype: luminescence [33]: inhibit; width of inhibition zone ([34]; amount added 0.1 μg): 0 mm; width of inhibition zone ([34]; amount added 1 μg): 0 mm; width of inhibition zone ([34]; amount added 10 μg): 6-9 mm; width of inhibition zone ([34]; amount added 100 μg): 6-20 mm; Minimum inhibitory concentration, Swimming [22]: >50 mg/L; Effect on bacterial growth [23]: no effect; Effect on bacterial growth [24]: no effect; Minimum inhibitory concentration, Swimming [25]: 5 mg/L (≈ 13.6 µM); Minimum inhibitory concentration, Growth [27]: 5 mg/L (≈ 13.6 µM); Minimum inhibitory concentration, Growth [28]: >50 mg/L; Effect on HSL phenotype: luminescence [35]: inhibit; Minimum inhibitory concentration, Growth [30]: >50 mg/L; Minimum inhibitory concentration, Swarming [31]: 25 mg/L (≈ 67.9 µM)
